Experimental data taken from ChEMBL document CHEMBL4118088, “C5-C6 Carbocyclic-Fused Iminothiadiazine Dioxides as BACE Inhibitors, Their Compositions, and Their Use” (ACS Med Chem Lett, 2017).
pKi: −log10 of the molar value.

Key:
[1] = molecular target: Beta-secretase 1 (Homo sapiens, UniProt P56817); experiment: Binding affinity to human BACE1 catalytic domain using QSY7-APPswe-Eu as substrate preincubated for 30 mins followed by substrate addition measured after 1.5 hrs by HTRF assay
[2] = molecular target: T1, Beta-secretase 2 (Homo sapiens, UniProt Q9Y5Z0); experiment: Binding affinity to human autoBACE2 using QSY7-APPswe-Eu as substrate preincubated for 30 mins followed by substrate addition measured after 90 mins by HTRF assay
T1 sequence (Q9Y5Z0 whole entry): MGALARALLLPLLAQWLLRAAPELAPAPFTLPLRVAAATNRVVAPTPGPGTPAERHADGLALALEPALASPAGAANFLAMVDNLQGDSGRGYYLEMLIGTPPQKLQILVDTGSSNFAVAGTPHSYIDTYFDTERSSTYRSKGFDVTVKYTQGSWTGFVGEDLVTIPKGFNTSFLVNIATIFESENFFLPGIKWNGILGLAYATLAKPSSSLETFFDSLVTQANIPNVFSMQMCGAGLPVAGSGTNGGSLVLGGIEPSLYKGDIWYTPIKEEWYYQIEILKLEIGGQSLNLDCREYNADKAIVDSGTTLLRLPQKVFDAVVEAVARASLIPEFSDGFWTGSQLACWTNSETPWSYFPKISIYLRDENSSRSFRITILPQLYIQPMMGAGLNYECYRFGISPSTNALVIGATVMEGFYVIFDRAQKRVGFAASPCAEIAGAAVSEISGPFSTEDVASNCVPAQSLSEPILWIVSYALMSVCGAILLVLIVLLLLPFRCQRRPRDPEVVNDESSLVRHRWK

Sequence of Beta-secretase 1 (P56817 whole entry, the tested form may be a part): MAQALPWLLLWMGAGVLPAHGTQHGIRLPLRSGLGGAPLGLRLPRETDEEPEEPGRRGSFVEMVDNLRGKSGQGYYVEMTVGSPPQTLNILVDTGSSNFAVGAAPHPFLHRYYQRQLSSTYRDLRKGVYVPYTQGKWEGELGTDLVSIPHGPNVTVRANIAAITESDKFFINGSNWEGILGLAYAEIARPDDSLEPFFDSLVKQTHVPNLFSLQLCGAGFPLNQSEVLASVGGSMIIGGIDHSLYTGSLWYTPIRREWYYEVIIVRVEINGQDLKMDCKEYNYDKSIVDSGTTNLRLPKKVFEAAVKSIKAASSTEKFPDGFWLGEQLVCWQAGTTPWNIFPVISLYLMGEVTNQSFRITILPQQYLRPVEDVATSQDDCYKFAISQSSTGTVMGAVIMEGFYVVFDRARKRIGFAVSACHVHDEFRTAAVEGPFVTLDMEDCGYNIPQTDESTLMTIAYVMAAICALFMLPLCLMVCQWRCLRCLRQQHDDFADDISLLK

Row | pKi [1] | pKi [2] | SMILES
1 | 7.44 | 8.05 | COc1cnc2c(C(=O)Nc3ccc(F)c([C@]45CCC[C@H]4S(=O)(=O)N(C)C(=N)N5)c3)nccc2n1
2 | 8.40 | 9.30 | CN1C(=N)N[C@@]2(c3cc(NC(=O)c4nccc5cc(Br)cnc45)ccc3F)CCC[C@H]2S1(=O)=O
3 | 7.51 | 8.00 | COc1cnc2c(C(=O)Nc3ccc(F)c([C@]45CCC[C@H]4S(=O)(=O)N(C)C(=N)N5)c3)nccc2c1
4 | 6.69 | 6.70 | COc1cnc2c(C(=O)Nc3ccc(F)c([C@]45CCC[C@H]4S(=O)(=O)N(C)C(=N)N5)c3)ccnc2c1
